Where two headings read alike, the source gives them in different places.
Assay: Solvent solubility of flame retardants
Assay type: physicochemical
Settings: for Solvent solubility compared with FR4 and FR5: comparison with traditionally-known phosphorus-type flame retardants FR4 and FR5
Protocol: 5 g of a flame retardant was added repeatedly to 100 mL of the following respective solvents at a temperature of 20° C. until the undissolved flame retardant was detected; and a largest amount of the flame retardant dissolved was measured. This largest amount was considered to be solvent solubility. • Solvents: toluene, methyl ethyl ketone (MEK), and propylene glycol monomethyl ether (PM) Materials for Synthesizing Aromatic Phosphoric Acid Esters
Flame retardants FR1 to FR4 as the flame retardants for thermosetting resin were evaluated for solvent solubility by the above method.

[1] = methyl ethyl ketone, 20° C., largest amount dissolved, added in 5 g portions
[2] = propylene glycol monomethyl ether, 20° C., largest amount dissolved, added in 5 g portions
[3] = toluene, 20° C., largest amount dissolved, added in 5 g portions

Row | Structure (SMILES) | Solvent solubility compared with FR4 and FR5 | Solvent solubility, MEK [1] [g/100 mL] | Solvent solubility, PM [2] [g/100 mL] | Solvent solubility, Toluene [3] [g/100 mL] | Solvent solubility, MEK [g/100 mL] | Solvent solubility, PM [g/100 mL] | Solvent solubility, Toluene [g/100 mL]
1 | Cc1cccc(C)c1OP(=O)(Oc1ccc(C2(c3ccc(OP(=O)(Oc4c(C)cccc4C)Oc4c(C)cccc4C)cc3)CC(C)CC(C)(C)C2)cc1)Oc1c(C)cccc1C (centres unmarked) [FR1] | superior in solvent solubility | 135 | 85 | 140 |  |  | 
2 | Cc1cccc(C)c1OP(=O)(Oc1ccc(C2(c3ccc(OP(=O)(Oc4c(C)cccc4C)Oc4c(C)cccc4C)cc3)CCCCCCCCCCC2)cc1)Oc1c(C)cccc1C [FR2] | superior in solvent solubility | 50 | 10 | 130 |  |  | 
3 | Cc1cccc(C)c1OP(=O)(Oc1cccc(OP(=O)(Oc2c(C)cccc2C)Oc2c(C)cccc2C)c1)Oc1c(C)cccc1C [FR3, 1,3-phenylenebis(di-2,6-xylyl phosphate), reference compound] |  |  |  |  | 55 | 10 | 75
4 | O=[PH]1Oc2ccccc2-c2ccccc21 (centres unmarked) [FR5, 9,10-dihydro-9-oxa-10-phosphaphenanthrene-10-oxide, reference compound] |  | 5 | 15 | <5 |  |  | 
